Laboratory results published in patent US7244730B2, “2-iminopyrrolidine derivatives” (Eisai Co., Ltd, priority 2001, dated 2007).
Where a name gives a salt, the structure may show the parent alone.

Assays:
thrombin receptor = target: T1, thrombin receptor (Homo sapiens, UniProt P25116); experiment: Receptor binding assay ([3H] high affinity TRAP, platelet membrane); settings: platelet membrane of healthy adult; 25 nM [3H] high affinity TRAP; 37° C., 1 hour; read-out: RBA IC50
T1 construct: centrifuged at 40,000 g for 60 minutes to yield platelet membrane; from tissue; host or cells: platelet membrane prepared from donor blood (platelet rich plasma)
T1 sequence (P25116 22-425): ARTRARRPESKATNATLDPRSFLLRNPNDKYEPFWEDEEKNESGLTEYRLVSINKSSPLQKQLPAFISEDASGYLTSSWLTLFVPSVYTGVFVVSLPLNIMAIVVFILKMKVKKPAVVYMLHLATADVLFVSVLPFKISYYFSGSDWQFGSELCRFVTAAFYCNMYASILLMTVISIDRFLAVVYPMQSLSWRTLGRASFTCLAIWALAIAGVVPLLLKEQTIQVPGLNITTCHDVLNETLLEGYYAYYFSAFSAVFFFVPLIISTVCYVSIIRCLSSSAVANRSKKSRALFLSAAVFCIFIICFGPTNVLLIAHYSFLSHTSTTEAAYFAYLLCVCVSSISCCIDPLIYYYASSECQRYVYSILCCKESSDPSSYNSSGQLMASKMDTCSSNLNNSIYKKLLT
Protocol: Blood was sampled from a healthy adult who had taken no drugs for one week, and 3.8% citric acid (a ratio of 1:9 with respect to the blood) was added as an anticoagulant. The mixture was then centrifuged at 100 g for 10 minutes at room temperature to yield platelet rich plasma (PRP). The platelet precipitate obtained by centrifuging the PRP was homogenized with a Dounce homogenizer, and then centrifuged at 40,000 g for 60 minutes to yield platelet membrane. The platelet membrane was suspended in a solution prepared by adding DMSO (dimethyl sulfoxide) at 1% concentration to Buffer 1: a 50 mM Tris-HCl buffer containing 10 mM MgCl2 and 1 mM EGTA (ethylene glycol tetraacetic acid), and the suspension was stored at −80° C. Bovine albumin and DMSO were added to Buffer 1 at 0.1% and 20%, respectively, to make preparation solutions for the test compound. The test compounds (20 μl) diluted at various concentrations with the preparation solutions were added to a 96-well multiscreen plate. […] After then adding 100 μl of the previously prepared platelet membrane suspension (0.4 mg/ml) and mixing, incubation was performed at 37° C. for 1 hour. The reaction mixture was suction filtered and then rinsed 3 times with 200 μl of Buffer 1. Next, 30 μl of liquid scintillator was added for measurement of the radioactivity of the plate using a Top Counter (Packard), the value of the radioactivity in the presence of the test compound minus non-specific binding portion was divided by the specific binding value (the value of the binding in the absence of the compound minus the non-specific binding portion) to determine the binding ratio, from which the IC50 value was calculated. The non-specific binding was the value obtained with addition of 10 μM of high affinity TRAP.

[1] = tested on: Vascular smooth muscle cells (rSMC); experiment: Rat smooth muscle cell proliferation assay; assay type: cell-based; settings: 48 h; male SD rat aorta rSMC; thrombin 0.1 unit/ml; 2 days; MTT, OD 590 nm; read-out: Rat SMC IC50
Protocol: [Rat Smooth Muscle Cell Proliferation Assay]
Vascular smooth muscle cells (rSMC) were isolated from male SD rat aorta by the explant method. DMEM medium (Sigma) containing 10% fetal bovine serum (GibcoBRL), streptomycin and penicillin was used as the proliferation medium, and subculture was carried out at 37° C. in the presence of 5% CO2. Culture was initiated after adding 100 μl of rSMC suspension in proliferation medium at a concentration of 1×10^4 cells/ml, to a 96-well plate. After 3 days, cells were rinsed twice with 100 μl of DMEM medium, the medium was exchanged with 100 μl of DMEM medium containing 0.1% albumin (starvation medium), and serum starvation was initiated. The medium was exchanged two days after the serum starvation, 80 μl of starvation medium and 10 μl of the test compound diluted to different concentrations with the starvation medium were added, and then 10 μl of thrombin dissolved in the starvation medium (final concentration: 0.1 unit/ml) was added prior to further incubation for 2 days.
Upon adding 20 μl of MTT (3-[4,5-dimethylthiazol-2-yl]-2,5-diphenyltetrazolium bromide) dissolved in DPBS to 7.5 mg/ml, incubation was continued for 4 hours. The medium was removed by suction, 50 μl of a 10% SDS/0.029% ammonia solution was added, and the mixture was allowed to stand for 2 hours in a CO2 incubator for complete lysis of the cells. As an index of cell proliferation, the OD 590 nm was measured using a plate reader (EL340, BIO-TEK Instruments Inc.), and the control OD value (OD value in the absence of the test compound) minus the OD value in the presence of the test compound was divided by the control OD value minus the blank OD value (OD value without thrombin stimulation) to determine the inhibition ratio, from which the IC50 value was calculated.

[2] = tested on: platelet rich plasma (PRP), thrombin-induced platelet aggregation; experiment: Inhibitory effects on platelet aggregation using platelet rich plasma; assay type: cell-based; settings: Homo sapiens, 0.1 h, PRP of healthy adult, aggregation initiated with thrombin (0.5–1.5 units/ml), area under aggregation curve, 6 minutes, read-out: Thr IC50
Protocol: [Inhibitory Effects on Platelet Aggregation Using Platelet Rich Plasma]
Blood was sampled from a healthy adult who had taken no drugs for one week, and 3.8% citric acid (a ratio of 1:9 with respect to the blood) was added as an anticoagulant. The mixture was then centrifuged at 100 g for 10 minutes at room temperature to yield platelet rich plasma (PRP). The PRP-removed blood was further centrifuged at 1000 g for 10 minutes to yield platelet poor plasma (PPP). The number of platelet was counted using a multi-parameter automatic hemocyte counter (K4500, Sysmex), and the PRP was diluted to approximately 300,000/μl with the PPP. The platelet aggregation activity was determined in the following manner using an Aggregometer (MC Medical). GPRP-NH2 (final concentration 1 mM, 25 μl) was added as a fibrin polymerization inhibitor to the PRP (175 μl), after which Ca-free Tyrode solution (control) or the test compound suspension (25 μl) at different concentrations was added, incubation was performed at 37° C. for 3 minutes and then 25 μl of thrombin at the minimum concentration required to produce maximum aggregation (final concentration: optimum concentration among 0.5–1.5 units/ml) was added, for initiation of platelet aggregation. PRP and Ca-free Tyrode solution (control) or the preparation solutions at various concentrations were pre-incubated at 37° C. for 60 minutes, prior to the platelet aggregation reaction in some experiments. After addition of thrombin, the aggregation reaction was examined for 6 minutes and the areas under the aggregation curves were compared to determine the inhibition ratio, from which the IC50 value was calculated.

Compound	IC50 (thrombin receptor)	IC50 [1]	IC50 [2]
CCOc1cc2c(c(F)c1OCC)C(=N)N(CC(=O)c1cc3c(c(C(C)(C)C)c1)OCCN3CC#N)C2 [Example 5, {8-tert-Butyl-6-[2-(5,6-diethoxy-7-fluoro-1-imino-1,3-dihydro-isoindol-2-yl)acetyl]-2,3-dihydrobenzo[1,4]oxazin-4-yl}acetonitrile hydrobromide]	17 nM	6.1 nM	290 nM
CCOc1cc2c(c(F)c1OCC)C(=N)N(CC(=O)c1cc(N(C)C)c(OC)c(C(C)(C)C)c1)C2 [Example 6, 1-(3-tert-Butyl-5-dimethylamino-4-methoxy-phenyl)-2-(5,6-diethoxy-7-fluoro-1-imino-1,3-dihydro-isoindol-2-yl)-ethanone hydrobromide]	24 nM	19 nM	72 nM
CCOc1cc2c(c(F)c1OCC)C(=N)N(CC(=O)c1cc(N3CCOCC3)c(OC)c(C(C)(C)C)c1)C2 [Example 7]	26 nM	32 nM	41 nM
CCOc1cc2c(c(F)c1OCC)C(=N)N(CC(=O)c1cc(N3CCC(O)CC3)c(OC)c(C(C)(C)C)c1)C2 [Example 8, 1-[3-tert-Butyl-5-(4-hydroxy-piperidin-1-yl)-4-methoxyphenyl]-2-(5,6-diethoxy-7-fluoro-1-imino-1,3-dihydro-isoindol-2-yl)-ethanone hydrobromide]	29 nM	23 nM	84 nM
CCOc1cc2c(c(F)c1OCC)C(=N)N(CC(=O)c1cc(NCC#N)c(OC)c(C(C)(C)C)c1)C2 [Example 10, (3-tert-Butyl-5-[2-(5,6-diethoxy-7-fluoro-1-imino-1,3-dihydro-isoindol-2-yl)-acetyl]-2-methoxy-phenylamino}-acetonitrile hydrobromide]	26 nM	34 nM	24 nM
CCOc1cc2c(c(F)c1OCC)C(=N)N(CC(=O)c1cc(N3CCN(CC#N)CC3)c(OC)c(C(C)(C)C)c1)C2 [Example 11, (4-{3-tert-Butyl-5-[2-(5,6-diethoxy-7-fluoro-1-imino-1,3-dihydro-isoindol-2-yl)-acetyl]-2-methoxy-phenyl}piperazin-1-yl)-acetonitrile hydrobromide]	45 nM	75 nM	57 nM
CCOc1cc2c(c(F)c1OCC)C(=N)N(CC(=O)c1cc(N3C[C@@H](O)[C@H](OC)C3)c(OC)c(C(C)(C)C)c1)C2 [Example 12, 1-[3-tert-Butyl-5-((3R,4R)-3-hydroxy-4-methoxy-pyrrolidin-1-yl)-4-methoxy-phenyl]-2-(5,6-diethoxy-7-fluoro-1-imino-1,3-dihydro-isoindol-2-yl)-ethanone trifluoroacetate]	45 nM	21 nM	41 nM
CCOc1cc2c(c(F)c1OCC)C(=N)N(CC(=O)c1cc(N3CCN(C(C)=O)CC3)c(OC)c(C(C)(C)C)c1)C2 [Example 13, 1-[3-(4-Acetyl-piperazin-1-yl)-5-tert-butyl-4-methoxy-phenyl]-2-(5,6-diethoxy-7-fluoro-1-imino-1,3-dihydro-isoindol-2-yl)ethanone hydrobromide]	46 nM	120 nM	45 nM
CCOc1cc2c(c(F)c1OCC)C(=N)N(CC(=O)c1cc(N3CCN(C(=O)COC)CC3)c(OC)c(C(C)(C)C)c1)C2 [Example 16, 1-{3-tert-Butyl-4-methoxy-5-[4-(2-methoxy-acetyl)piperazin-1-yl]phenyl}-2-(5,6-diethoxy-7-fluoro-1-imino-1,3-dihydro-isoindol-2-yl)-ethanone hydrobromide]	53 nM	59 nM	57 nM
CCOc1cc2c(c(F)c1OCC)C(=N)N(CC(=O)c1cc(N3C[C@H](OCC)[C@@H](O)C3)c(OC)c(C(C)(C)C)c1)C2 [Example 17, 1-[3-tert-Butyl-5-((3S,4S)-3-ethoxy-4-hydroxy-pyrrolidin-1-yl)-4-methoxy-phenyl]-2-(5,6-diethoxy-7-fluoro-1-imino-1,3-dihydro-isoindol-2-yl)ethanone trifluoroacetate]	32 nM		80 nM
